Test results as given in patent publication EP4578861A1, “NOVEL TRICYCLIC HETEROCYCLIC CARBALDEHYDE COMPOUND AND PHARMACEUTICAL COMPOSITION, CONTAINING SAME, FOR IRE1ALPHA INHIBITION” (Hanmi Pharm. Co., Ltd., priority 2022, dated 2024).
pIC50: −log10 of the molar value.

System: spliced XBP1
Test: Spliced XBP1 mRNA measurement test (RT-PCR, tunicamycin-induced ER stress in MCF-7 cells)
Format: cell-based
Conditions: Homo sapiens, MCF7, compound pre-treated for 1 hour, then 2 µg/mL tunicamycin for 6 or 24 hours, spliced XBP1 corrected by total XBP1
Method: With respect to these synthetic compounds, reverse transcription polymerase chain reaction (RT-PCR) experiments were conducted on MCF-7 cancer cells to confirm the effect thereof on the mRNA and protein amounts of spliced XBP1, which is the target of IRE endonuclease. A reverse transcription polymerase chain reaction is a test method in which RNA is extracted from cells, reverse transcriptase is used to make cDNA, and relative mRNA expression level is measured through a polymerase chain reaction.
Briefly, MCF-7 cells were seeded in a 12-well plate and cultured in an incubator including 5% CO2 for one day. On the next day, compounds, which were 10-fold serially diluted from 10,000 nM, were pre-treated for 1 hour, and then, treated with 2 µg/mL tunicamycin for 6 or 24 hours to induce endoplasmic reticulum stress, followed by cell lysis to obtain RNA. RNA was subjected to the procedure of RNeasy Kits (Qiagen, 74106), and 5 µg of RNA sample was dissolved in a sample including reverse transcriptase and dNTP, and reverse transcription reaction was performed with a thermal cycler. The amount of mRNA of each of spliced XBP1 and total XBP1 was measured by a polymerase chain reaction through real time PCR by mixing each cDNA sample with a PCR reaction mixture including a primer pair capable of binding specifically to each target and SYBR green dye. The expression level of spliced XBP1 was corrected by the total expression level of XBP1, and the relative expression levels of spliced XBP1 between samples were compared and analyzed.

Row | SMILES | pIC50
1 | Cc1c(CC(=O)N2CCOCC2)c(=O)oc2c(C=O)c(O)c3c(c12)CCO3 [Example 1, 4-hydroxy-9-methyl-8-(2-morpholino-2-oxoethyl)-7-oxo-1,7-dihydro-2H-furo[3,2-f]chromene-5-carbaldehyde] | > 7.00
2 | Cc1c(CC(=O)N2CCOCC2)c(=O)oc2c(C=O)c(O)c3c(c12)OCO3 [Example 2, 4-hydroxy-9-methyl-8-(2-morpholino-2-oxoethyl)-7-oxo-7H-[1,3]dioxolo[4,5-f]chromene-5-carbaldehyde] | 6.70 to 7.00
3 | Cc1c(CC(=O)N2CCOCC2)c(=O)oc2c(C=O)c(O)c3c(c12)CCCO3 [Example 3, 6-hydroxy-1-methyl-2-(2-morpholino-2-oxoethyl)-3-oxo-3,8,9,10-tetrahydropyrano[3,2-f]chromene-5-carbaldehyde] | > 7.00
4 | Cc1c(CC(=O)N2CCC(C)CC2)c(=O)oc2c(C=O)c(O)c3c(c12)CCCO3 [Example 4, 6-hydroxy-1-methyl-2-(2-(4-methylpiperidin-1-yl)-2-oxoethyl)-3-oxo-3,8,9,10-tetrahydropyrano[3,2-f]chromene-5-carbaldehyde] | ≤ 6.70
5 | Cc1c(CC(=O)N2CCCC2)c(=O)oc2c(C=O)c(O)c3c(c12)CCCO3 [Example 5, 6-hydroxy-1-methyl-3-oxo-2-(2-oxo-2-(pyrrolidin-1-yl)ethyl)-3,8,9,10-tetrahydropyrano[3,2-f]chromene-5-carbaldehyde] | > 7.00
6 | Cc1c(CC(=O)N2CCN(C)CC2)c(=O)oc2c(C=O)c(O)c3c(c12)CCCO3 [Example 6, 6-hydroxy-1-methyl-2-(2-(4-methylpiperazin-1-yl)-2-oxoethyl)-3-oxo-3,8,9,10-tetrahydropyrano[3,2-f]chromene-5-carbaldehyde] | > 7.00
7 | Cc1c(CC(=O)N2CCN(C(C)C)CC2)c(=O)oc2c(C=O)c(O)c3c(c12)CCCO3 [Example 7, 6-hydroxy-2-(2-(4-isopropylpiperazin-1-yl)-2-oxoethyl)-1-methyl-3-oxo-3,8,9,10-tetrahydropyrano[3,2-f]chromene-5-carbaldehyde] | 6.70 to 7.00
8 | CCNC(=O)Cc1c(C)c2c3c(c(O)c(C=O)c2oc1=O)OCC3 [Example 8, N-ethyl-2-(5-formyl-4-hydroxy-9-methyl-7-oxo-1,7-dihydro-2H-furo[3,2-f]chromen-8-yl)acetamide] | > 7.00
9 | CCN(CC)C(=O)Cc1c(C)c2c3c(c(O)c(C=O)c2oc1=O)OCC3 [Example 9, N,N-diethyl-2-(5-formyl-4-hydroxy-9-methyl-7-oxo-1,7-dihydro-2H-furo[3,2-f]chromen-8-yl)acetamide] | > 7.00
10 | Cc1c(CC(=O)N2CCC(F)(F)C2)c(=O)oc2c(C=O)c(O)c3c(c12)CCCO3 [Example 10, 2-(2-(3,3-difluoropyrrolidin-1-yl)-2-oxoethyl)-6-hydroxy-1-methyl-3-oxo-3,8,9,10-tetrahydropyrano[3,2-f]chromene-5-carbaldehyde] | > 7.00
11 | Cc1c(CC(=O)N2CCC(C)C2)c(=O)oc2c(C=O)c(O)c3c(c12)CCCO3 (stereo not shown) [Example 11, 6-hydroxy-1-methyl-2-(2-(3-methylpyrrolidin-1-yl)-2-oxoethyl)-3-oxo-3,8,9,10-tetrahydropyrano[3,2-f]chromene-5-carbaldehyde] | > 7.00
12 | Cc1c(CC(=O)N2CCC(C)(C)C2)c(=O)oc2c(C=O)c(O)c3c(c12)CCCO3 [Example 12, 2-(2-(3,3-dimethylpyrrolidin-1-yl)-2-oxoethyl)-6-hydroxy-1-methyl-3-oxo-3,8,9,10-tetrahydropyrano[3,2-f]chromene-5-carbaldehyde] | 6.70 to 7.00
13 | Cc1c(CC(=O)N2CCC2)c(=O)oc2c(C=O)c(O)c3c(c12)CCCO3 [Example 13, 2-(2-(azetidin-1-yl)-2-oxoethyl)-6-hydroxy-1-methyl-3-oxo-3,8,9,10-tetrahydropyrano[3,2-f]chromene-5-carbaldehyde] | 6.70 to 7.00
14 | COC1CCN(C(=O)Cc2c(C)c3c4c(c(O)c(C=O)c3oc2=O)OCCC4)C1 (stereo not shown) [Example 14, 6-hydroxy-2-(2-(3-methoxypyrrolidin-1-yl)-2-oxoethyl)-1-methyl-3-oxo-3,8,9,10-tetrahydropyrano[3,2-f]chromene-5-carbaldehyde] | 6.70 to 7.00
15 | COC1CN(C(=O)Cc2c(C)c3c4c(c(O)c(C=O)c3oc2=O)OCCC4)C1 [Example 15, 6-hydroxy-2-(2-(3-methoxyazetidin-1-yl)-2-oxoethyl)-1-methyl-3-oxo-3,8,9,10-tetrahydropyrano[3,2-f]chromene-5-carbaldehyde] | 6.70 to 7.00
16 | Cc1c(CC(=O)N2CCC(F)C2)c(=O)oc2c(C=O)c(O)c3c(c12)CCCO3 (stereo not shown) [Example 16, 2-(2-(3-fluoropyrrolidin-1-yl)-2-oxoethyl)-6-hydroxy-1-methyl-3-oxo-3,8,9,10-tetrahydropyrano[3,2-f]chromene-5-carbaldehyde] | ≤ 6.70

Row | SMILES | pIC50
17 | CCNC(=O)Cc1c(C)c2c3c(c(O)c(C=O)c2oc1=O)OCCC3 [Example 17, N-ethyl-2-(5-formyl-6-hydroxy-1-methyl-3-oxo-3,8,9,10-tetrahydropyrano[3,2-f]chromen-2-yl)acetamide] | > 7.00
18 | CCc1c(CC(=O)N2CCCC2)c(=O)oc2c(C=O)c(O)c3c(c12)CCCO3 [Example 18, 1-ethyl-6-hydroxy-3-oxo-2-(2-oxo-2-(pyrrolidin-1-yl)ethyl)-3,8,9,10-tetrahydropyrano[3,2-f]chromene-5-carbaldehyde] | ≤ 6.70
19 | Cc1c(CC(=O)N2CC(F)C2)c(=O)oc2c(C=O)c(O)c3c(c12)CCCO3 [Example 19, 2-(2-(3-fluoroazetidin-1-yl)-2-oxoethyl)-6-hydroxy-1-methyl-3-oxo-3,8,9,10-tetrahydropyrano[3,2-f]chromene-5-carbaldehyde] | 6.70 to 7.00
20 | Cc1c(CC(=O)N2CCC3(CC3)C2)c(=O)oc2c(C=O)c(O)c3c(c12)CCCO3 [Example 20, 6-hydroxy-1-methyl-3-oxo-2-(2-oxo-2-(5-azaspiro[2.4]heptan-5-yl)ethyl)-3,8,9,10-tetrahydropyrano[3,2-f]chromene-5-carbaldehyde] | 6.70 to 7.00
21 | Cc1c(CC(=O)N2CCCCC2)c(=O)oc2c(C=O)c(O)c3c(c12)CCCO3 [Example 21, 6-hydroxy-1-methyl-3-oxo-2-(2-oxo-2-(piperidin-1-yl)ethyl)-3,8,9,10-tetrahydropyrano[3,2-f]chromene-5-carbaldehyde] | ≤ 6.70
22 | Cc1c(CC(N)=O)c(=O)oc2c(C=O)c(O)c3c(c12)CCCO3 [Example 22, 2-(5-formyl-6-hydroxy-1-methyl-3-oxo-3,8,9,10-tetrahydropyrano[3,2-f]chromen-2-yl)acetamide] | ≤ 6.70
23 | CC(C)c1c(CC(=O)N2CCCC2)c(=O)oc2c(C=O)c(O)c3c(c12)CCCO3 [Example 23, 6-hydroxy-1-isopropyl-3-oxo-2-(2-oxo-2-(pyrrolidin-1-yl)ethyl)-3,8,9,10-tetrahydropyrano[3,2-f]chromene-5-carbaldehyde] | 6.70 to 7.00
24 | COCCNC(=O)Cc1c(C)c2c3c(c(O)c(C=O)c2oc1=O)OCCC3 [Example 24, 2-(5-formyl-6-hydroxy-1-methyl-3-oxo-3,8,9,10-tetrahydropyrano[3,2-f]chromen-2-yl)-N-(2-methoxyethyl)acetamide] | > 7.00
25 | CCN(CC)C(=O)Cc1c(C)c2c3c(c(O)c(C=O)c2oc1=O)OCCC3 [Example 25, N,N-diethyl-2-(5-formyl-6-hydroxy-1-methyl-3-oxo-3,8,9,10-tetrahydropyrano[3,2-f]chromen-2-yl)acetamide] | > 7.00
26 | CC(=O)N1CCN(C(=O)Cc2c(C)c3c4c(c(O)c(C=O)c3oc2=O)OCCC4)CC1 [Example 26, 2-(2-(4-acetylpiperazin-1-yl)-2-oxoethyl)-6-hydroxy-1-methyl-3-oxo-3,8,9,10-tetrahydropyrano[3,2-f]chromene-5-carbaldehyde] | ≤ 6.70
27 | Cc1c(CC(=O)N2CC3CC2CO3)c(=O)oc2c(C=O)c(O)c3c(c12)CCCO3 (stereo not shown) [Example 27, 2-(2-(2-oxa-5-azabicyclo[2.2.1]heptan-5-yl)-2-oxoethyl)-6-hydroxy-1-methyl-3-oxo-3,8,9,10-tetrahydropyrano[3,2-f]chromene-5-carbaldehyde] | > 7.00
28 | Cc1c(CC(=O)N2CCSCC2)c(=O)oc2c(C=O)c(O)c3c(c12)CCCO3 [Example 28, 6-hydroxy-1-methyl-3-oxo-2-(2-oxo-2-thiomorpholinoethyl)-3,8,9,10-tetrahydropyrano[3,2-f]chromene-5-carbaldehyde] | 6.70 to 7.00
29 | Cc1c(CC(=O)NCCN2CCOCC2)c(=O)oc2c(C=O)c(O)c3c(c12)CCCO3 [Example 29, 2-(5-formyl-6-hydroxy-1-methyl-3-oxo-3,8,9,10-tetrahydropyrano[3,2-f]chromen-2-yl)-N-(2-morpholinoethyl)acetamide] | ≤ 6.70
30 | Cc1c(CC(=O)N2CCSC2)c(=O)oc2c(C=O)c(O)c3c(c12)CCCO3 [Example 30, 6-hydroxy-1-methyl-3-oxo-2-(2-oxo-2-(thiazolidin-3-yl)ethyl)-3,8,9,10-tetrahydropyrano[3,2-f]chromene-5-carbaldehyde] | > 7.00
31 | Cc1c(CC(=O)N2CCNCC2)c(=O)oc2c(C=O)c(O)c3c(c12)CCCO3 [Example 31, 6-hydroxy-1-methyl-3-oxo-2-(2-oxo-2-(piperazin-1-yl)ethyl)-3,8,9,10-tetrahydropyrano[3,2-f]chromene-5-carbaldehyde] | ≤ 6.70
